Reference: patent US20020071842A1, “Soluble CD1 compositions and uses thereof” (priority 2000, published 2002)

Key:
Assay in all cases: Plate-bound mCD1d fusion protein hybridoma stimulation assay (IL-2 ELISA)
Type in all cases: cell-based, mouse
24.8.A hybridoma = conditions: for IL-2 response to mCD1d fusion protein pre-treated with purified or synthetic lipid: 24.8.A hybridoma, compared to untreated or buffer treated fusion protein
Description: (§1) The CD1d-restricted T cell clones 24.7, 24.8, 24.9 (NKT cell) and 14S.6, 14S.7, 14S.10, and 14S.15 (diverse TCRs) were all derived from spleen of wild type C57BL/6 mice, as described previously (Behar, S. M. et al., J. Immunol., 162:161-7 (1999)). To generate T cell hybridomas, the activated T cells were fused to the aminopterin-sensitive BW5147 αβTCR^− thymoma cell line using PEG1500, and hybrids were selected in HAT medium (Life Technologies, Gaithersburg, Md.). Resulting TT hybridomas were tested for recognition of RMA-S cells transfected with mCD1D1 compared to untransfected RMA-S cells, as described below. […] The hybridomas are distinguished from the original T cell clones by the addition of a letter to their names. The KT/7, KT/12, KT/22, and KT/23 and Vβ/9 NKT cell hybridomas were derived from NK1.1^+ T cells enriched from spleen of C57BL/6 mice by depletion of CD8+ T cells, naive T cells, and B cells by mAbs (anti-B220, CD8, and CD62L, or anti-CD8α, CD8β, and Me114) bound to magnetic microbeads, or to plastic. The purified cells were stimulated either by the anti-CD3 KT3 mAb (KT/7, KT/12, KT/22, KT/23), or by an anti-Vβ8.2 mAb (Vβ/9), and addition of IL-2 or IL-2 and IL-7. After 4-5 days of culture the cells were fused with BW5147 thymoma cells. The VII68, VIII24, XVI9, and XV104 diverse TCR hybridomas were generated from CD4^+ T cells from class 110 mice, as described previously (Cardell, S. et al., J. Exp. Med., 182:993-1004 (1995)). The DN32D3 hybridoma was derived as described (Lantz, O., and Bendelac, A., J. Exp. Med., 180:1097-106 (1994).
(§2) To test for recognition of the mCD1d fusion protein and purified or synthetic antigens, 96 well protein A coated plates (Pierce Chemical Company) were incubated with 400-600 ng/well of the fusion protein or a negative control IgG2a antibody, RPC5.4 or UPC10, in PBS, at pH 7.2. Lipid antigens were diluted into PBS and added where specified at the indicated molar ratio of antigen to fusion protein, (when not specified the ratio was 40:1). Protein A plates containing the fusion protein and antigen were incubated 24-48 hr at 37° C., then washed three times with 200 μl/well sterile PBS, pH 7.2, and two times with 200 μl/well sterile culture medium (containing RPMI supplemented with L-glutamine and penicillin/streptomycin, Life Technologies, Gaithersburg, Md., and 10% bovine calf serum, Hyclone Laboratories, Logan, Utah). For assays in which the PI was phospholipase treated, it was first diluted into 0.01M Tris, 0.15M NaCl, pH 7.5, containing 0.25 U PI-specific phospholipase C or 0.5 U phospholipase D (Sigma, St Louis, Mo.), and incubated 30 minutes at room temperature, then added to the protein A plates as described above. For assays in which the pH was varied during antigen incubation with the fusion protein, the fusion protein and α-GalCer were diluted into a 20 mM citrate/phosphate buffer of the specified pH, which contained 0.15 M NaCl, and after incubation, the samples were neutralized by addition of 1M Tris, pH 7.5. Hybridoma cells were added to fusion protein/antigen treated plates at a concentration of 1×10^5 cells/well, in a total volume of 150 μl/well. Assays were performed using 2-6 replicate wells. In some assays, an anti-mCD1d blocking antibody (19G11) was included at a final concentration of 20 μg/ml. The plates were incubated at 37° C. for 16-20 hr, and culture supernatants were withdrawn for analysis. Each experiment was performed at least three times.
(§3) IL-2 secreted in the hybridoma stimulation assays was quantitated in a double antibody sandwich ELISA, by comparison to a standard curve of purified murine IL-2 (Pharmingen, San Diego, Calif.). Hybridoma plate stimulation supernatants (used either neat or diluted) and serially diluted IL-2 standards were added to 96 well ELISA plates coated with a rat anti-mouse IL-2 capture antibody (Pharmingen).

14S.6.A hybridoma = conditions: 14S.6.A diverse TCR hybridoma; plate-bound mCD1d-IgGFc2a fusion protein preincubated with lipid antigen
Description: as §1, §2
as §3, with “(Pharmingen). […]” for “(Pharmingen).”

24.9.E hybridoma = conditions: 24.9 E NKT hybridoma; plate-bound mCD1d-IgGFc2a fusion protein preincubated with lipid antigen
Description: as §1, §2
as §3, with “(Pharmingen). […]” for “(Pharmingen).”

14S.15.A hybridoma = conditions: 14S.15.A diverse TCR hybridoma; plate-bound mCD1d-IgGFc2a fusion protein preincubated with lipid antigen
Description: as §1, §2
as §3, with “(Pharmingen). […]” for “(Pharmingen).”

Vβ/9 hybridoma = conditions: Vβ/9 NKT hybridoma; plate-bound mCD1d-IgGFc2a fusion protein preincubated with lipid antigen
Description: as §1, §2
as §3, with “(Pharmingen). […]” for “(Pharmingen).”

KT/23 hybridoma = conditions: KT/23 NKT hybridoma; plate-bound mCD1d-IgGFc2a fusion protein preincubated with lipid antigen
Description: as §1, §2
as §3, with “(Pharmingen). […]” for “(Pharmingen).”

VIII24 hybridoma = conditions: VIII24 diverse TCR hybridoma; plate-bound mCD1d-IgGFc2a fusion protein preincubated with lipid antigen
Description: as §1, §2
as §3, with “(Pharmingen). […]” for “(Pharmingen).”

VII68 hybridoma = conditions: VII68 diverse TCR hybridoma; plate-bound mCD1d-IgGFc2a fusion protein preincubated with lipid antigen
Description: as §1, §2
as §3, with “(Pharmingen). […]” for “(Pharmingen).”

KT/22 hybridoma = conditions: KT/22 NKT hybridoma; plate-bound mCD1d-IgGFc2a fusion protein preincubated with lipid antigen
Description: as §1, §2
as §3, with “(Pharmingen). […]” for “(Pharmingen).”

KT/12 hybridoma = conditions: KT/12 NKT hybridoma; plate-bound mCD1d-IgGFc2a fusion protein preincubated with lipid antigen
Description: as §1, §2
as §3, with “(Pharmingen). […]” for “(Pharmingen).”

KT/7 hybridoma = conditions: KT/7 NKT hybridoma; plate-bound mCD1d-IgGFc2a fusion protein preincubated with lipid antigen
Description: as §1, §2
as §3, with “(Pharmingen). […]” for “(Pharmingen).”

24.7.C hybridoma = conditions: 24 7.C NKT hybridoma; plate-bound mCD1d-IgGFc2a fusion protein preincubated with lipid antigen
Description: as §1, §2
as §3, with “(Pharmingen). […]” for “(Pharmingen).”

14S.7.N hybridoma = conditions: 14S.7.N diverse TCR hybridoma; plate-bound mCD1d-IgGFc2a fusion protein preincubated with lipid antigen
Description: as §1, §2
as §3, with “(Pharmingen). […]” for “(Pharmingen).”

XV19 hybridoma = conditions: XV19 diverse TCR hybridoma; plate-bound mCD1d-IgGFc2a fusion protein preincubated with lipid antigen
Description: as §1, §2
as §3, with “(Pharmingen). […]” for “(Pharmingen).”

XV104 hybridoma = conditions: XV104 diverse TCR hybridoma; plate-bound mCD1d-IgGFc2a fusion protein preincubated with lipid antigen
Description: as §1, §2
as §3, with “(Pharmingen). […]” for “(Pharmingen).”

DN32D3 hybridoma = conditions: DN32D3 NKT hybridoma; plate-bound mCD1d-IgGFc2a fusion protein preincubated with lipid antigen
Description: as §1, §2
as §3, with “(Pharmingen). […]” for “(Pharmingen).”

Molecule | IL-2 response to mCD1d fusion protein pre-treated with purified or synthetic lipid (24.8.A hybridoma) | IL-2 secretion (24.8.A hybridoma; 24.8 A NKT hybridoma, plate-bound mCD1d-IgGFc2a fusion protein preincubated with lipid antigen) | IL-2 secretion (14S.6.A hybridoma) | IL-2 secretion (24.9.E hybridoma) | IL-2 secretion (14S.15.A hybridoma) | IL-2 secretion (Vβ/9 hybridoma) | IL-2 secretion (KT/23 hybridoma) | IL-2 secretion (VIII24 hybridoma) | IL-2 secretion (VII68 hybridoma) | IL-2 secretion (KT/22 hybridoma) | IL-2 secretion (KT/12 hybridoma) | IL-2 secretion (KT/7 hybridoma) | IL-2 secretion (24.7.C hybridoma) | IL-2 secretion (14S.7.N hybridoma) | IL-2 secretion (XV19 hybridoma) | IL-2 secretion (XV104 hybridoma) | IL-2 secretion (DN32D3 hybridoma)
CCCCCCCCCCCCCCCC(=O)OCC(COP(=O)(O)O)OC(=O)CCCCCCCCCCCCCCC (stereo not drawn) [PA, phosphatidic acid] | little or no stimulation | + (“+” indicates 50-250 pg/ml) | 0 (A “0” indicates a mean of less than 50 pg/ml IL-2 was secreted) | 0 (A “0” indicates a mean of less than 50 pg/ml IL-2 was secreted) | 0 (A “0” indicates a mean of less than 50 pg/ml IL-2 was secreted) | 0 (A “0” indicates a mean of less than 50 pg/ml IL-2 was secreted) | 0 (A “0” indicates a mean of less than 50 pg/ml IL-2 was secreted) | 0 (A “0” indicates a mean of less than 50 pg/ml IL-2 was secreted) | 0 (A “0” indicates a mean of less than 50 pg/ml IL-2 was secreted) | 0 (A “0” indicates a mean of less than 50 pg/ml IL-2 was secreted) | 0 (A “0” indicates a mean of less than 50 pg/ml IL-2 was secreted) | 0 (A “0” indicates a mean of less than 50 pg/ml IL-2 was secreted) | 0 (A “0” indicates a mean of less than 50 pg/ml IL-2 was secreted) | 0 (A “0” indicates a mean of less than 50 pg/ml IL-2 was secreted) | 0 (A “0” indicates a mean of less than 50 pg/ml IL-2 was secreted) | 0 (A “0” indicates a mean of less than 50 pg/ml IL-2 was secreted) | 0 (A “0” indicates a mean of less than 50 pg/ml IL-2 was secreted)
O[C@H]1[C@H](O)[C@@H](O)[C@H](O)[C@@H](O)[C@H]1O [inositol] | little or no stimulation | – | – | – | – | – | – | – | – | – | – | – | – | – | – | – | –
CCCCCCCCCCCCCCCC(=O)O [palmitate, Palmitic acid] | little or no stimulation | – | – | – | – | – | – | – | – | – | – | – | – | – | – | – | –
diacyl glyceride [DAG] | little or no stimulation | – | 0 (A “0” indicates a mean of less than 50 pg/ml IL-2 was secreted) | 0 (A “0” indicates a mean of less than 50 pg/ml IL-2 was secreted) | 0 (A “0” indicates a mean of less than 50 pg/ml IL-2 was secreted) | 0 (A “0” indicates a mean of less than 50 pg/ml IL-2 was secreted) | 0 (A “0” indicates a mean of less than 50 pg/ml IL-2 was secreted) | 0 (A “0” indicates a mean of less than 50 pg/ml IL-2 was secreted) | 0 (A “0” indicates a mean of less than 50 pg/ml IL-2 was secreted) | 0 (A “0” indicates a mean of less than 50 pg/ml IL-2 was secreted) | 0 (A “0” indicates a mean of less than 50 pg/ml IL-2 was secreted) | 0 (A “0” indicates a mean of less than 50 pg/ml IL-2 was secreted) | 0 (A “0” indicates a mean of less than 50 pg/ml IL-2 was secreted) | 0 (A “0” indicates a mean of less than 50 pg/ml IL-2 was secreted) | 0 (A “0” indicates a mean of less than 50 pg/ml IL-2 was secreted) | 0 (A “0” indicates a mean of less than 50 pg/ml IL-2 was secreted) | 0 (A “0” indicates a mean of less than 50 pg/ml IL-2 was secreted)
phosphatidylethanolamine [PE] | dose dependent responses | – | + (“+” indicates 50-250 pg/ml) | 0 (A “0” indicates a mean of less than 50 pg/ml IL-2 was secreted) | 0 (A “0” indicates a mean of less than 50 pg/ml IL-2 was secreted) | – | – | – | – | – | – | – | 0 (A “0” indicates a mean of less than 50 pg/ml IL-2 was secreted) | 0 (A “0” indicates a mean of less than 50 pg/ml IL-2 was secreted) | – | – | 0 (A “0” indicates a mean of less than 50 pg/ml IL-2 was secreted)
